Measurements published in patent publication US20040176368A1, “Pesticidal composition” (Sumitomo Chemical Company, Limited, priority 2003, published 2004).

Tested on: German cockroaches (Blattlla germanica)
Test: Spray test on German cockroaches in glass box (Test example 1)
Assay type: in vivo
Conditions: 4.2 ml sprayed, 10 min exposure, observed 4 days thereafter
Procedure: Two grams (2 g) of each of Indoxacarb MP and Imiprothrin are mixed with 98 g of a mixture of xylene/Sorpol SM200X (surfactant produced by Toho Chemical)=85/15 to give each formulation of Indoxacarb MP and Imiprothrin. The formulations for the following tests are produced by mixing the Indoxacarb MP formulation with the Imiprothrin formulation at the designated ratio. The formulations for the tests are diluted with water to the designated concentration to give the preparations for the test.
Into the glass box, 4.2 ml of the preparation obtained above were sprayed with a spray gun. Ten minutes after spraying, the cockroaches were transferred to a plastic container and were provided with food and water. The mortality of the cockroaches was observed 4 days thereafter.

With `COC(=O)N(C(=O)N1COC2(C(=O)OC)Cc3cc(Cl)ccc3C2=N1)c1ccc(OC(F)(F)F)cc1` (racemic) [Indoxacarb MP, methyl (RS)-7-chloro-2,5-dihydro-2-[[(methoxycarbonyl)[4-(trifluoromethoxy)phenyl]amino]carbornyl]indeno[1,2-e][1,3,4]oxadiazine-4a(3H)-carboxylate] the “Mortality (%)” value (concentration of the preparation 0.5 % by weight) was 25%.

With `C#CCN1CC(=O)N(COC(=O)C2C(C=C(C)C)C2(C)C)C1=O` (mixture of isomers) [Imiprothrin, 2,5-dioxo-3-prop-2-ynylimidazolidin-1-ylmethyl (1R)-trans,cis-2,2-dimethyl-3-(2-methylprop-1-enyl)cyclopropanecarboxylate] the “Mortality (%)” value (concentration of the preparation 0.4 % by weight) was 0%.
